Data: patent US20160326143A1, “COMPOUNDS AND USES” (AstraZeneca AB, priority 2015, published 2016)

The compounds below were run against Recombinant human LTC4 synthase (Homo sapiens (Human), UniProt Q16873) (assay: In vitro hLTC4 synthase enzyme assay (Test A)). Details: Test A (Examples 1-61); substrate LTA4, LTC4 detected by HTRF; median of at least two determinations.
Sequence of Recombinant human LTC4 synthase (Q16873 whole entry): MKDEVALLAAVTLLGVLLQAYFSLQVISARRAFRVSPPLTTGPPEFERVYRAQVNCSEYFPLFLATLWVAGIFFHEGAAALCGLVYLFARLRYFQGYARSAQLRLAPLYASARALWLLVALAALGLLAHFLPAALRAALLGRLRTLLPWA
Assay type: biochemical
Experimental: In Vitro hLTC4 Synthase Enzyme Assay (Test A)
Recombinant human LTC4 synthase is expressed in Piccia pastoralis and the purified enzyme is dissolved in 25 mM tris-buffer pH 7.8 supplemented with 0.1 mM glutathione (GSH) and stored at −80° C.
The buffer is used as background. Runs are performed in duplicates.
The reaction is stopped after 1 min by addition of double the reaction volume of a stop solution (MeOH:H2O:acetic acid 70:30:1).
After 15 fold dilution in PBS, LTC4 formation is detected with LTC4 HTRF kit (Cisbio, cat. No 64LC4PEC) and a fluorescence reader. Typically 6 μL of sample is mixed with 3 μL of each of the HTRF reagents d2 and k and analyzed as described in the kit manual.
With `COc1cc(N(CC2(C(F)(F)F)CC2)c2ccc(Cl)cc2)cnc1C(=O)C1CC1C(=O)O` (stereo not drawn) [Example 3, 2-(5-((4-Chlorophenyl)((1-(trifluoromethyl)cyclopropyl)methyl)amino)-3-methoxypicolinoyl)cyclopropanecarboxylic acid] the IC50 was 149 nM. `COCC1(CN(c2ccc(Cl)cc2)c2cnc(C(=O)C3CC3C(=O)O)c(OC)c2)CC1` (stereo not drawn) [Example 4, 2-(5-((4-Chlorophenyl)((1-(methoxymethyl)cyclopropyl)methyl)amino)-3-methoxypicolinoyl)cyclopropanecarboxylic acid] gave an IC50 of 263 nM. In the case of `COc1cc(N(CC2(C)CC2)c2ccc(Cl)cc2)cnc1C(=O)C1CC1C(=O)O` (stereo not drawn) [Example 5, 2-(5-((4-Chlorophenyl)((1-methylcyclopropyl)methyl)amino)-3-methoxypicolinoyl)cyclopropanecarboxylic acid], the IC50 is reported as 38 nM. `COc1cc(N(CC2(C)CC2)c2ccc3c(c2)CCC3)cnc1C(=O)C1CC1C(=O)O` (stereo not drawn) [Example 6, 2-(5-((2,3-Dihydro-1H-inden-5-yl)((1-methylcyclopropyl)methyl)amino)-3-methoxypicolinoyl)cyclopropanecarboxylic acid] gave an IC50 of 47 nM. `COc1cc(N(CC2CC2)c2ccc(C)c3ncccc23)cnc1C(=O)C1CC1C(=O)O` (stereo not drawn) [Example 8, 2-(5-((Cyclopropylmethyl)(8-methylquinolin-5-yl)amino)-3-methoxypicolinoyl)cyclopropanecarboxylic acid] gave an IC50 of 279 nM. With `COc1cc(N(CC2CC2)c2cccc3ccccc23)cnc1C(=O)C1CC1C(=O)O` (stereo not drawn) [Example 9, 2-(5-((Cyclopropylmethyl)(naphthalen-1-yl)amino)-3-methoxypicolinoyl)cyclopropanecarboxylic acid] the IC50 was 24 nM. With `COc1cc(N(CC2CC2)c2ccc(C)c3ccccc23)cnc1C(=O)C1CC1C(=O)O` (stereo not drawn) [Example 11, 2-(5-((Cyclopropylmethyl)(4-methylnaphthalen-1-yl)amino)-3-methoxypicolinoyl)cyclopropanecarboxylic acid] the IC50 was 35 nM. With `COc1cc(N(CC2CC2)c2ccc3ccccc3c2)cnc1C(=O)C1CC1C(=O)O` (stereo not drawn) [Example 12, 2-(5-((Cyclopropylmethyl)(naphthalen-2-yl)amino)-3-methoxypicolinoyl)cyclopropanecarboxylic acid] the IC50 was 28 nM. In the case of `COc1cc(N(Cc2ccc(Cl)cc2)CC2CC2)cnc1C(=O)C1CC1C(=O)O` (stereo not drawn) [Example 13, 2-(5-((4-Chlorobenzyl)(cyclopropylmethyl)amino)-3-methoxypicolinoyl)cyclopropanecarboxylic acid], the IC50 is reported as 34 nM. Work on `COc1cc(N(Cc2ccc3ccccc3c2)CC2CC2)cnc1C(=O)C1CC1C(=O)O` (stereo not drawn) [Example 17, 2-(5-((Cyclopropylmethyl)(naphthalen-2-ylmethyl)amino)-3-methoxypicolinoyl)cyclopropanecarboxylic acid] yielded an IC50 of 34 nM. `COc1cc(N(Cc2cccc(Cl)c2)CC2CC2)cnc1C(=O)C1CC1C(=O)O` (stereo not drawn) [Example 18, 2-(5-((3-Chlorobenzyl)(cyclopropylmethyl)amino)-3-methoxypicolinoyl)cyclopropanecarboxylic acid] showed an IC50 of 39 nM. `COc1cc(N(Cc2ccc(F)cc2)CC2CC2)cnc1C(=O)C1CC1C(=O)O` (stereo not drawn) [Example 19, 2-(5-((Cyclopropylmethyl)(4-fluorobenzyl)amino)-3-methoxypicolinoyl)cyclopropanecarboxylic acid] gave an IC50 of 105 nM. `COc1cc(N(Cc2cccc(C(F)(F)F)c2C)CC2CC2)cnc1C(=O)C1CC1C(=O)O` (stereo not drawn) [Example 20, 2-(5-((Cyclopropylmethyl)(2-methyl-3-(trifluoromethyl)benzyl)amino)-3-methoxypicolinoyl)cyclopropanecarboxylic acid] gave an IC50 of 88 nM. `COc1cc(N(Cc2cccc(C(F)(F)F)c2Cl)CC2CC2)cnc1C(=O)C1CC1C(=O)O` (stereo not drawn) [Example 22, 2-(5-((2-Chloro-3-(trifluoromethyl)benzyl)(cyclopropylmethyl)amino)-3-methoxypicolinoyl)cyclopropanecarboxylic acid] gave an IC50 of 112 nM. `COc1cc(N(Cc2c(C)ccc3ccccc23)CC2CC2)cnc1C(=O)C1CC1C(=O)O` (stereo not drawn) [Example 23, 2-(5-((Cyclopropylmethyl)((2-methylnaphthalen-1-yl)methyl)amino)-3-methoxypicolinoyl)cyclopropanecarboxylic acid] gave an IC50 of 1840 nM. `COc1cc(N(Cc2cccc(C)c2C)CC2CC2)cnc1C(=O)C1CC1C(=O)O` (stereo not drawn) [Example 28, 2-(5-((Cyclopropylmethyl)(2,3-dimethylbenzyl)amino)-3-methoxypicolinoyl)cyclopropanecarboxylic acid] showed an IC50 of 67 nM. Work on `COc1cc(N(Cc2ccc(F)c(F)c2F)CC2CC2)cnc1C(=O)C1CC1C(=O)O` (stereo not drawn) [Example 29, 2-(5-((Cyclopropylmethyl)(2,3,4-trifluorobenzyl)amino)-3-methoxypicolinoyl)cyclopropanecarboxylic acid] yielded an IC50 of 370 nM. For `COc1cc(N(Cc2ccc(F)c(Cl)c2F)CC2CC2)cnc1C(=O)C1CC1C(=O)O` (stereo not drawn) [Example 30, 2-(5-((3-Chloro-2,4-difluorobenzyl)(cyclopropylmethyl)amino)-3-methoxypicolinoyl)cyclopropanecarboxylic acid], the IC50 was 152 nM. `COc1cc(N(Cc2cccc(C(F)(F)F)c2F)CC2CC2)cnc1C(=O)C1CC1C(=O)O` (stereo not drawn) [Example 31, 2-(5-((Cyclopropylmethyl)(2-fluoro-3-(trifluoromethyl)benzyl)amino)-3-methoxypicolinoyl)cyclopropanecarboxylic acid] gave an IC50 of 331 nM. Compound `COc1cc(N(Cc2c(F)ccc(C)c2F)CC2CC2)cnc1C(=O)C1CC1C(=O)O` (stereo not drawn) [Example 32, 2-(5-((Cyclopropylmethyl)(2,6-difluoro-3-methylbenzyl)amino)-3-methoxypicolinoyl)cyclopropanecarboxylic acid] has an IC50 of 1670 nM. `COc1cc(N(Cc2ccc(C)c(F)c2F)CC2CC2)cnc1C(=O)C1CC1C(=O)O` (stereo not drawn) [Example 33, 2-(5-((Cyclopropylmethyl)(2,3-difluoro-4-methylbenzyl)amino)-3-methoxypicolinoyl)cyclopropanecarboxylic acid] was tested, and the IC50 was 185 nM. `COc1cc(N(CC2CC2)c2ccc(C(F)(F)F)c3ccccc23)cnc1C(=O)C1CC1C(=O)O` (stereo not drawn) [Example 34, 2-(5-((Cyclopropylmethyl)(4-(trifluoromethyl)naphthalen-1-yl)amino)-3-methoxypicolinoyl)cyclopropanecarboxylic acid] gave an IC50 of 19 nM. `COc1cc(N(CC2CC2)c2ccc(C(F)(F)F)c3cccnc23)cnc1C(=O)C1CC1C(=O)O` (stereo not drawn) [Example 35, 2-(5-((Cyclopropylmethyl)(5-(trifluoromethyl)quinolin-8-yl)amino)-3-methoxypicolinoyl)cyclopropanecarboxylic acid] was tested, and the IC50 was 229 nM. With `COc1cc(N(CC2CC2)c2ccc3c4c(cccc24)CC3)cnc1C(=O)C1CC1C(=O)O` (stereo not drawn) [Example 36, 2-(5-((Cyclopropylmethyl)(1,2-dihydroacenaphthylen-5-yl)amino)-3-methoxypicolinoyl)cyclopropanecarboxylic acid] the IC50 was 9 nM. `COc1cc(N(CC2CC2)c2cccc3c(C(F)(F)F)cccc23)cnc1C(=O)C1CC1C(=O)O` (stereo not drawn) [Example 37, 2-(5-((Cyclopropylmethyl)(5-(trifluoromethyl)naphthalen-1-yl)amino)-3-methoxypicolinoyl)cyclopropanecarboxylic acid] gave an IC50 of 25 nM. `COc1cc(N(CC2CC2)c2ccc3cccc4c3c2CC4)cnc1C(=O)C1CC1C(=O)O` (stereo not drawn) [Example 38, 2-(5-((Cyclopropylmethyl)(1,2-dihydroacenaphthylen-3-yl)amino)-3-methoxypicolinoyl)cyclopropanecarboxylic acid] showed an IC50 of 31 nM. With `COc1cc(N(CC2CC2)c2ccc(Cl)cc2)cnc1C(=O)C1CC1C(=O)NS(=O)(=O)C1CC1` (stereo not drawn) [Example 40, 2-(5-((4-Chlorophenyl)(cyclopropylmethyl)amino)-3-methoxypicolinoyl)-N-(cyclopropylsulfonyl)-cyclopropanecarboxamide] the IC50 was 356 nM. `COc1ccc(S(=O)(=O)NC(=O)C2CC2C(=O)c2ncc(N(CC3CC3)c3ccc(Cl)cc3)cc2OC)cc1` (stereo not drawn) [Example 41, 2-(5-((4-Chlorophenyl)(cyclopropylmethyl)amino)-3-methoxypicolinoyl)-N-((4-methoxyphenyl)sulfonyl)-cyclopropanecarboxamide] gave an IC50 of 81 nM. `COc1cc(N(CC2CC2)c2ccc(Cl)cc2)cnc1C(=O)C1CC1C(=O)NS(=O)(=O)c1ccc(OC(F)(F)F)cc1` (stereo not drawn) [Example 42, 2-(5-((4-Chlorophenyl)(cyclopropylmethyl)amino)-3-methoxypicolinoyl)-N-((4-(trifluoromethoxy)phenyl)-sulfonyl)cyclopropanecarboxamide] was tested, and the IC50 was 277 nM. With `COc1cc(N(CC2CC2)c2ccc(Cl)cc2)cnc1C(=O)C1CC1C(=O)NS(=O)(=O)c1ccccc1F` (stereo not drawn) [Example 43, 2-(5-((4-Chlorophenyl)(cyclopropylmethyl)amino)-3-methoxypicolinoyl)-N-((2-fluorophenyl)sulfonyl)-cyclopropanecarboxamide] the IC50 was 74 nM. Compound `COc1cc(N(CC2CC2)c2ccc(C)c3ccccc23)ccc1C(=O)C1CC1C(=O)O` (stereo not drawn) [Example 45, 2-(4-((Cyclopropylmethyl)(4-methylnaphthalen-1-yl)amino)-2-methoxybenzoyl)cyclopropanecarboxylic acid] has an IC50 of 62 nM. With `COc1cc(N(CC2CC2)c2ccc(F)c3ccccc23)ccc1C(=O)C1CC1C(=O)O` (stereo not drawn) [Example 46, 2-(4-((Cyclopropylmethyl)(4-fluoronaphthalen-1-yl)amino)-2-methoxybenzoyl)cyclopropanecarboxylic acid] the IC50 was 26 nM. `COc1cc(N(CC2CC2)c2ccc(Cl)c3ccccc23)ccc1C(=O)C1CC1C(=O)O` (stereo not drawn) [Example 47, 2-(4-((4-Chloronaphthalen-1-yl)(cyclopropylmethyl)amino)-2-methoxybenzoyl)cyclopropanecarboxylic acid] gave an IC50 of 61 nM.
